From US20240299385A1 (ReWind Therapeutics NV, priority 2021, published 2024)

Biological target: T1, human GPR17 receptor (Homo sapiens, UniProt Q13304)
T1 construct: host or cells: HEK-293
Test: Calcium mobilization functional assay (Fluo-8, FLIPR TETRA) in HEK-293 hGPR17 (Gα-q assay)
Assay type: cell-based
Conditions: antagonism of MDL29,951 (~EC80) induced Ca2+ signal; cell line (HEK-293 hGPR17 or HEK-293 Suchi5 hGPR17) not given
In short: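 Fluo-8-loaded HEK-293 hGPR17 cells (60 min dye loading, room temperature) were preincubated with compound for twenty minutes, then challenged with agonist MDL29,951 at ~EC80, 500 nM. Intracellular calcium release via Gα-q was recorded as FLIPR fluorescence for a further 2 minutes; compounds tested in duplicate.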

T1 sequence (Q13304 whole entry): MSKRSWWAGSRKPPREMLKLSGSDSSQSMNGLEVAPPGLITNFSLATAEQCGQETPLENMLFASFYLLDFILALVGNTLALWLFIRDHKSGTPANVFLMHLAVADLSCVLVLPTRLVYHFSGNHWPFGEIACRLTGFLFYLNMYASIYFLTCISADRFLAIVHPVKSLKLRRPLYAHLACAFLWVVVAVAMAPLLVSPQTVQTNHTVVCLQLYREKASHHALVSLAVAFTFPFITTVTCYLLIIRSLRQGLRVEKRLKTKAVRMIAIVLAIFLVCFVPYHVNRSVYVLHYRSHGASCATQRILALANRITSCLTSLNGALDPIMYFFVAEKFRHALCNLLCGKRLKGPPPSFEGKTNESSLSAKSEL

Structure (SMILES)	IC50 [nM]
Cc1ccnc(-c2cc(S(=O)(=O)Nc3ccc(C#N)cc3F)c[nH]2)c1 [Cpd 503, N-(4-cyano-2-fluorophenyl)-5-(4-methylpyridin-2-yl)-1H-pyrrole-3-sulfonamide]	500 to 5000
Cc1cccc(-c2cc(S(=O)(=O)Nc3ccc(C#N)cc3F)c[nH]2)n1 [Cpd 504, N-(4-cyano-2-fluorophenyl)-5-(6-methylpyridin-2-yl)-1H-pyrrole-3-sulfonamide]	< 500
O=C1C=C(c2cc(S(=O)(=O)Nc3cc(F)c(C(F)(F)F)cc3F)c[nH]2)CC1 [Cpd 505, N-(2,5-difluoro-4-(trifluoromethyl)phenyl)-5-(3-oxocyclopent-1-en-1-yl)-1H-pyrrole-3-sulfonamide]	5000 to 50000
CN(C)c1ccccc1-c1cc(S(=O)(=O)Nc2ccc(C#N)cc2F)c[nH]1 [Cpd 506, N-(4-cyano-2-fluorophenyl)-5-[2-(dimethylamino)phenyl]-1H-pyrrole-3-sulfonamide]	500 to 5000
N#Cc1ccc(NS(=O)(=O)c2c[nH]c(-c3cc(Cl)c(F)cc3F)c2)c(F)c1 [Cpd 507, 5-(5-chloro-2,4-difluorophenyl)-N-(4-cyano-2-fluorophenyl)-1H-pyrrole-3-sulfonamide]	500 to 5000
N#Cc1cc(F)c(NS(=O)(=O)c2c[nH]c(-c3cc(Cl)ccc3F)c2)cc1F [Cpd 508, 5-(5-chloro-2-fluorophenyl)-N-(4-cyano-2,5-difluorophenyl)-1H-pyrrole-3-sulfonamide]	< 500
N#Cc1cc(F)c(NS(=O)(=O)c2c[nH]c(-c3ccc(F)cc3)c2)cc1F [Cpd 509, N-(4-cyano-2,5-difluorophenyl)-5-(4-fluorophenyl)-1H-pyrrole-3-sulfonamide]	< 500
N#Cc1cc(F)c(NS(=O)(=O)c2c[nH]c(-c3ccc(F)cc3F)c2)cc1F [Cpd 510, N-(4-cyano-2,5-difluorophenyl)-5-(2,4-difluorophenyl)-1H-pyrrole-3-sulfonamide]	< 500
Cc1cc(NS(=O)(=O)c2c[nH]c(-c3ccccc3F)c2)c(F)cc1C#N [Cpd 511, N-(4-cyano-2-fluoro-5-methylphenyl)-5-(2-fluorophenyl)-1H-pyrrole-3-sulfonamide]	< 500
Cc1cc(NS(=O)(=O)c2c[nH]c(-c3cc(Cl)ccc3F)c2)c(F)cc1C#N [Cpd 512, 5-(5-chloro-2-fluorophenyl)-N-(4-cyano-2-fluoro-5-methylphenyl)-1H-pyrrole-3-sulfonamide]	< 500
Cc1cc(NS(=O)(=O)c2c[nH]c(-c3ccc(F)cc3)c2)c(F)cc1C#N [Cpd 513, N-(4-cyano-2-fluoro-5-methylphenyl)-5-(4-fluorophenyl)-1H-pyrrole-3-sulfonamide]	500 to 5000
Cc1cc(NS(=O)(=O)c2c[nH]c(-c3ccc(F)cc3F)c2)c(F)cc1C#N [Cpd 514, N-(4-cyano-2-fluoro-5-methylphenyl)-5-(2,4-difluorophenyl)-1H-pyrrole-3-sulfonamide]	500 to 5000
O=S(=O)(Nc1cc(F)c(OC(F)F)cc1F)c1c[nH]c(-c2cccc(Cl)n2)c1 [Cpd 515, 5-(6-chloropyridin-2-yl)-N-[4-(difluoromethoxy)-2,5-difluorophenyl]-1H-pyrrole-3-sulfonamide]	< 500
O=S(=O)(Nc1cc(F)c(OC(F)F)cc1F)c1c[nH]c(-c2cccc(Br)n2)c1 [Cpd 516, 5-(6-bromopyridin-2-yl)-N-[4-(difluoromethoxy)-2,5-difluorophenyl]-1H-pyrrole-3-sulfonamide]	< 500
O=S(=O)(Nc1cc(F)c(C(F)(F)F)cc1F)c1c[nH]c(-c2cccc3ccoc23)c1 [Cpd 517, 5-(1-benzofuran-7-yl)-N-[2,5-difluoro-4-(trifluoromethyl)phenyl]-1H-pyrrole-3-sulfonamide]	500 to 5000
COc1cscc1-c1cc(S(=O)(=O)Nc2cc(F)c(C(F)(F)F)cc2F)c[nH]1 [Cpd 518, N-[2,5-difluoro-4-(trifluoromethyl)phenyl]-5-(4-methoxythiophen-3-yl)-1H-pyrrole-3-sulfonamide]	500 to 5000
O=S(=O)(Nc1cc(F)c(C(F)(F)F)cc1F)c1c[nH]c(-c2cccc3c2OCC3)c1 [Cpd 519, N-[2,5-difluoro-4-(trifluoromethyl)phenyl]-5-(2,3-dihydro-1-benzofuran-7-yl)-1H-pyrrole-3-sulfonamide]	500 to 5000
O=C1CCC(c2cc(S(=O)(=O)Nc3cc(F)c(C(F)(F)F)cc3F)c[nH]2)C1 (stereo not drawn) [Cpd 520, N-(2,5-difluoro-4-(trifluoromethyl)phenyl)-5-(3-oxocyclopentyl)-1H-pyrrole-3-sulfonamide]	5000 to 50000
CN(C)c1cccc(-c2cc(S(=O)(=O)Nc3ccc(C#N)cc3F)c[nH]2)c1 [Cpd 521, N-(4-cyano-2-fluorophenyl)-5-[3-(dimethylamino)phenyl]-1H-pyrrole-3-sulfonamide]	5000 to 50000
N#Cc1cc(F)c(NS(=O)(=O)c2c[nH]c(-c3ccccc3F)c2)cc1Cl [Cpd 522, N-(5-chloro-4-cyano-2-fluorophenyl)-5-(2-fluorophenyl)-1H-pyrrole-3-sulfonamide]	< 500
N#Cc1cc(F)c(NS(=O)(=O)c2c[nH]c(-c3cc(Cl)ccc3F)c2)cc1Cl [Cpd 523, N-(5-chloro-4-cyano-2-fluorophenyl)-5-(5-chloro-2-fluorophenyl)-1H-pyrrole-3-sulfonamide]	< 500
N#Cc1cc(F)c(NS(=O)(=O)c2c[nH]c(-c3ccc(F)cc3)c2)cc1Cl [Cpd 524, N-(5-chloro-4-cyano-2-fluorophenyl)-5-(4-fluorophenyl)-1H-pyrrole-3-sulfonamide]	500 to 5000
N#Cc1cc(F)c(NS(=O)(=O)c2c[nH]c(-c3ccc(F)cc3F)c2)cc1Cl [Cpd 525, N-(5-chloro-4-cyano-2-fluorophenyl)-5-(2,4-difluorophenyl)-1H-pyrrole-3-sulfonamide]	500 to 5000
O=S(=O)(Nc1cc(F)c(OC(F)F)cc1F)c1c[nH]c(-c2ccccc2Cl)c1 [Cpd 526, 5-(2-chlorophenyl)-N-[4-(difluoromethoxy)-2,5-difluorophenyl]-1H-pyrrole-3-sulfonamide]	500 to 5000
O=S(=O)(Nc1cc(F)c(Br)cc1F)c1c[nH]c(-c2cccc(Cl)n2)c1 [Cpd 527, N-(4-bromo-2,5-difluorophenyl)-5-(6-chloropyridin-2-yl)-1H-pyrrole-3-sulfonamide]	< 500
O=S(=O)(Nc1cc(F)c(Br)cc1F)c1c[nH]c(-c2cccc(Br)n2)c1 [Cpd 528, N-(4-bromo-2,5-difluorophenyl)-5-(6-bromopyridin-2-yl)-1H-pyrrole-3-sulfonamide]	< 500
CCc1cc(NS(=O)(=O)c2c[nH]c(-c3ccccc3)c2)c(F)cc1C#N [Cpd 529, N-(4-cyano-5-ethyl-2-fluorophenyl)-5-phenyl-1H-pyrrole-3-sulfonamide]	< 500
COc1ccccc1-c1cc(S(=O)(=O)Nc2cc(F)c(OC(F)F)cc2F)c[nH]1 [Cpd 530, N-[4-(difluoromethoxy)-2,5-difluorophenyl]-5-(2-methoxyphenyl)-1H-pyrrole-3-sulfonamide]	< 500
COc1c(F)cccc1-c1cc(S(=O)(=O)Nc2cc(F)c(OC(F)F)cc2F)c[nH]1 [Cpd 531, N-[4-(difluoromethoxy)-2,5-difluorophenyl]-5-(3-fluoro-2-methoxyphenyl)-1H-pyrrole-3-sulfonamide]	< 500
COc1ccccc1-c1cc(S(=O)(=O)Nc2cc(F)c(Br)cc2F)c[nH]1 [Cpd 532, N-(4-bromo-2,5-difluorophenyl)-5-(2-methoxyphenyl)-1H-pyrrole-3-sulfonamide]	500 to 5000
